Laboratory results: PMC3792051, “Polyenylpyrrole Derivatives Inhibit NLRP3 Inflammasome Activation and Inflammatory Mediator Expression by Reducing Reactive Oxygen Species Production and Mitogen-Activated Protein Kinase Activation” (PLoS ONE, 2013)

What was measured:
[1] = system: ATP-activated LPS-primed J774A.1 macrophages; assay: Intracellular ROS production (DCF fluorescence), ATP-induced; type: cell-based, murine
Protocol: Intracellular ROS production was measured by detecting the fluorescence intensity of the 2’, 7’-dichlorofluorescein, the oxidation product of 2’, 7’-dichlorofluorescein diacetate (Molecular Probes, Eugene, OR). […] In another, J774A.1 macrophages (5 × 10^5/ml; 0.1 ml) were incubated with LPS (1 µg/ml) for 6 h, then vehicle, compound 1h (20 µM), or DPI (25 µM) was added for 30 min. 2’, 7’-dichlorofluorescein diacetate (2 µM) was then added for 30 min before incubation with ATP (5 mM) for the indicated time; while, in another, the order of addition of compound1h/DPI and LPS was reversed. The fluorescence intensity of 2’, 7’-dichlorofluorescein was detected at an excitation wavelength of 485 nm and an emission wavelength of 530 nm on a microplate absorbance reader (Bio-Rad Laboratories, Inc).
In (A), J774A.1 macrophages (1 × 10^6/ml; 1 ml) were incubated with LPS (1 µg/ml) for 6 h, then with compound 1h (20 µM), the NADPH oxidase inhibitor DPI (25 µM), or DMSO (vehicle) for 30 min in the continued presence of LPS, then 2’,7’-dichlorofluorescein diacetate (2 µM) was added for 30 min, followed by ATP (5 mM) for the indicated time, then ROS levels were determined by measuring the mean fluorescence intensity (MFI) of the fluorophore carboxyl-DCF and expressing this value relative to that at time zero. In (B), J774A.1 macrophages (1 × 10^6/ml; 1 ml) were incubated with compound 1h (20 µM), DPI (25 µM), or DMSO (vehicle) for 30 min, then LPS (1 µg/ml) was added for 6 h; the cells were then incubated with 2’,7’-dichlorofluorescein diacetate (2 µM) for 30 min, then with ATP (5 mM) for the indicated time and ROS levels were measured by detection of the fluorescence intensity of the fluorophore carboxyl-DCF and expressed relative to that at time zero.

[2] = system: NLRP3 inflammasome in LPS + ATP-activated JAWSII cells; assay: NLRP3 inflammasome-mediated IL-1β secretion; type: cell-based, murine
[3] = system: ATP-activated LPS-primed J774A.1 macrophages; assay: PKC-α and AKT phosphorylation by Western blot; type: cell-based, murine
Protocol: Cells were washed twice with ice-cold phosphate-buffered saline (PBS) and lysed on ice for 5 min with lysis buffer (20 mM Tris-HCl, pH 7.5, 150 mM NaCl, 1 mM Na 2EDTA, 1 mM EGTA, 1% Triton X-100, 2.5 mM sodium pyrophosphate, 1 mM beta-glycerophosphate, 1 mM Na 3VO4, 1 µg/ml of leupeptin, 1 mM PMSF, protease inhibitor cocktail). The lysate was then centrifuged at 12,000 x g at 4 °C for 10 min and the pellet discarded. […]
In (C), LPS-primed J774A.1 macrophages (1 × 10^6/ml; 1 ml) were incubated for 30 min with 20 µM compound 1h or DMSO (vehicle) followed by ATP (5 mM) stimulation for 0-60 min, then phosphorylation of PKC-α was analyzed by Western blotting and expressed as the fold increase measured as the intensity of the PKC-α band divided by that of the actin band normalized to the corresponding value for DMSO at 0 minutes.

[4] = system: LPS-activated JAWSII dendritic cells; assay: IL-6 and TNF-α secretion by ELISA; type: cell-based, murine; details: 10-40 µM, LPS 1 µg/ml 24 h
Protocol: (§1) The effects of the test samples on IL-1β, TNF-α, and IL-6 production were measured by ELISA according to the manufacturer’s instructions. In brief, 50 µl of biotinylated antibody reagent and 50 µl of supernatant were added to a stripwell plate precoated with anti-mouse IL-1β, TNF-α, or IL-6 antibodies, which was then incubated at room temperature for 2 h. After washing the plate three times with washing buffer, 100 µl of diluted streptavidin-HRP concentrate was added to each well and the plate incubated at room temperature for 30 min. The washing process was repeated, then 100 µl of a premixed tetramethylbenzidine substrate solution was added to each well and the plate incubated at room temperature in the dark for 30 min. After addition of 100 µl of stop solution to each well, the absorbance at 450 nm of each well was measured on a microplate reader.
(§2) Figure 3 Effect of compound 1h on LPS-induced secretion of IL-6 and TNF-α by J774A.1 macrophages, peritoneal macrophages, and JAWSII dendritic cells. (A) J774A.1 macrophages, (B) peritoneal macrophages, or (C) JAWSII dendritic cells (all 4 × 10^5/ml; 1 ml) were incubated for 30 min with 10-40 µM compound 1h or DMSO, then LPS (1 µg/ml) was added and incubation continued for 24 h, then IL-6 levels (left panels) and TNF-α levels (right panels) in the culture medium were measured by ELISA. The data are expressed as the mean ± SD for three separate experiments. *, **, and *** indicate a significant difference at the level of p < 0.05, p < 0.01, or p < 0.001, respectively, compared to the DMSO/LPS group.

[5] = system: LPS-activated J774A.1 macrophages; assay: IL-6 and TNF-α secretion by ELISA; type: cell-based, murine; details: J774A.1, 10-40 µM, LPS 1 µg/ml 24 h
Protocol: as §1, §2

[6] = system: LPS-activated RAW 264.7 macrophages; assay: NO production inhibitory assay (Griess reaction); type: cell-based, murine
Protocol: RAW 264.7 cells seeded in 24-well plates at a density of 5 × 10^5 cells/ml (1 ml) were incubated for 24 h with or without LPS (1 µg/ml) in the absence or presence of the test samples, then NO production was measured indirectly by analysis of nitrite levels using the Griess reaction.
To investigate the inhibitory effect of compounds 1h, 1i, and 1n on the LPS-induced inflammatory response, NO levels in the supernatants of RAW 264.7 macrophages incubated with DMSO (vehicle) or compound 1h, 1i, or 1n for 30 min before, and during, incubation for 24 h with LPS (1 µg/ml) were measured by the Griess reaction. […] We next investigated their effect on the expression of iNOS, the NO producing enzyme, using Western blots.
Figure 2 Effect of polyenylpyrrole derivatives on the expression of inflammatory mediators in LPS-stimulated RAW 264.7 macrophages. In (A) and (C), the cells (5 × 10^5/ml; 1 ml) were incubated for 30 min with 2.5-40 µM compound 1h, 1i, or 1n or DMSO (vehicle), then LPS (1 µg/ml) was added and incubation continued for 24 h, then NO (A) or IL-6 or TNF-α (C) in the culture medium was assayed by the Griess reaction or ELISA, respectively. In (B), cells (5 × 10^5/ml; 1 ml) were pretreated for 30 min with 2.5-40 µM compound 1h or DMSO, then LPS (1 µg/ml) was added and incubation continued for 24 h, then expression of iNOS and COX-2 was measured by Western blotting. The fold increase is the intensity of the band of interest divided by that of the actin band normalized to the corresponding value for the 0 LPS/0 inhibitor control.

[7] = system: NLRP3 inflammasome in LPS+ATP-activated peritoneal macrophages; assay: NLRP3 inflammasome-mediated IL-1β secretion (ELISA); type: cell-based, mouse; details: compound 10-40 µM 30 min before LPS 5.5 h, then ATP 5 mM 30 min
Protocol: as §1, with “The washing process was repeated, then 100 µl of a premixed tetramethylbenzidine substrate solution was added to each well and the plate incubated at room temperature in the dark for 30 min.” left out, “reader. […]” for “reader.”
Figure 4 Effect of compound 1h on NLRP3 inflammasome activation in LPS+ATP-activated J774A.1 macrophages. (A) J774A.1 macrophages (1 × 10^6/ml; 1 ml) or (B) peritoneal macrophages (1 × 10^5/ml; 1 ml) were incubated with 10-40 µM compound 1h or DMSO for 30 min, then LPS (1 µg/ml) was added and incubation continued for 5.5 h, then the cells were stimulated with ATP (5 mM) for an additional 30 min, then IL-1β in the culture medium was measured by ELISA (A, upper panel; B) and levels of active caspase-1 (p10) (A, lower panel) measured by Western blotting. […]

## O=c1cc(O)cc(/C=C/C=C/C=C/C=C/c2[nH]ccc2Cl)o1 [compound 1h]
[1]; J774A.1, LPS 6 h, then compound 1h 20 µM or DPI 25 µM 30 min, ATP 5 mM 0-40 min
  ATP-induced ROS production, compound added after LPS priming: slightly reduced ATP-induced ROS production at 40 min
[1]; J774A.1, compound 1h 20 µM or DPI 25 µM 30 min, then LPS 6 h, then ATP 5 mM
  ATP-induced ROS production, compound added 30 min before LPS priming: significantly inhibited ATP-induced ROS production
[2]
  NLRP3 inflammasome-mediated IL-1β secretion: reduced NLRP3 inflammasome-mediated interleukin-1β (IL-1β) secretion
[3]; LPS-primed J774A.1, 20 µM 30 min, ATP 5 mM 0-60 min
  ATP-induced PKC-α phosphorylation: significant inhibition of ATP-induced PKC-α phosphorylation at 20-60 min
[3]; LPS-primed macrophages (data not shown)
  ATP-induced AKT phosphorylation: did not reduce ATP-induced AKT phosphorylation
[4]
  LPS-induced IL-6 secretion: reduced LPS-induced IL-6 and TNF-α secretion
  LPS-induced TNF-α secretion: reduced LPS-induced IL-6 and TNF-α secretion
[5]
  LPS-induced IL-6 secretion: reduced secretion of IL-6 and TNF-α
  LPS-induced TNF-α secretion: reduced secretion of IL-6 and TNF-α
[6]; 2.5-40 µM, 30 min before and during LPS 1 µg/ml 24 h
  NO production by LPS-activated cells: decreased NO production by LPS-activated cells in a dose-dependent manner
[6]; RAW 264.7 macrophages, LPS 1 µg/ml, 24 h, Griess reaction
  ED50 (inhibition of LPS-induced NO production): 15 ± 2 µM
[6]; compound alone, no LPS (data not shown)
  NO levels produced by non-activated cells: did not alter NO levels produced by non-activated cells
[7]
  IL-1β secretion: inhibited IL-1β secretion by primary peritoneal macrophages
